Format in all cases: cell-based
Experiment [1] relates to AsPC-1 (homozygous mutant KRAS G12D human pancreatic cell line). Kind of experiment: KRAS 3D-Cell Proliferation Assay, AsPC-1 (Example 503). Conditions: Homo sapiens, ASPC1, 168 h, AsPC-1 3D culture, 7 days, CellTiter-Glo 3D; read-out: Prolif AsPC-1 3D ATP IC50. An outline of the steps:
(§1)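 IC50s come from a 4-parameter Hill fit of luminescence (CellTiter-Glo 3D) normalized between DMSO (0%) and 1 μM staurosporine (100%). Cells in low-attachment 3D culture, RPMI-1640 with 10% FBS, received serial compound dilutions (0.3% DMSO) after overnight and were incubated 7 days at 37 °C.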

The subject of experiment [2] is PC-9 (KRAS wild type human lung adenocarcinoma cell line). Kind of experiment: KRAS 3D-Cell Proliferation Assay, PC-9 (Example 503). To be noted: 168 h, PC-9 3D culture, 7 days, CellTiter-Glo 3D, read-out: Prolif PC9 3D ATP IC50. The gist of the method:
as §1

In experiment [3] the test system is HPAC (homozygous mutant KRAS G12D human pancreatic cell line). Kind of experiment: KRAS 3D-Cell Proliferation Assay, HPAC (Example 503). Conditions: Homo sapiens, HPAC, 168 h, HPAC 3D culture, 7 days, CellTiter-Glo 3D; read-out: Prolif HPAC 3D ATP IC50. An outline of the steps:
as §1

The subject of experiment [4] is H1975 (KRAS wild type human lung adenocarcinoma cell line). Kind of experiment: KRAS 3D-Cell Proliferation Assay, H1975 (Example 503). Conditions: Homo sapiens, NCI-H1975, 168 h, H1975 3D culture, 7 days, CellTiter-Glo 3D; read-out: Prolif H1975 3D ATP IC50. An outline of the steps: as §1

Structures are written as SMILES. Where only a bound is given, the exact number is not on record here.

Regarding `C=C1CN2CCC[C@@]2(COc2nc3c4c(nc(-c5cc(N)c(F)c(C)c5C(F)(F)F)c(F)c4n2)O[C@@H](C)[C@@H]2[C@@H]4CC[C@H](CN32)N4)C1` [Compound 57, 2-Fluoro-5-((5S,5aS,6S,9R)-1-fluoro-5-methyl-12-(((S)-2-methylenetetrahydro-1H-pyrrolizin-7a(5H)-yl)methoxy)-5a,6,7,8,9,10-hexahydro-5H-4-oxa-3,10a,11,13,14-pentaaza-6,9-methanonaphtho[1,8-ab]heptalen-2-yl)-3-methyl-4-(trifluoromethyl) aniline], the IC50 in experiment [1] turned out to be 0.361 nM; in experiment [2], 3110 nM; in experiment [3] it was 2.59 nM; in experiment [4], 251 nM.

`Cc1c(F)c(N)cc(-c2nc3c4c(nc(OC[C@@]56CCCN5C[C@H](F)C6)nc4c2F)N2C[C@H]4CC[C@H](N4)[C@H]2[C@H](C)O3)c1Cl` [Compound 76, 4-Chloro-2-fluoro-5-((5S,5aS,6S,9R)-1-fluoro-12-(((2R,7aS)-2-fluorotetrahydro-1H-pyrrolizin-7a(5H)-yl)methoxy)-5-methyl-5a,6,7,8,9,10-hexahydro-5H-4-oxa-3,10a,11,13,14-pentaaza-6,9-methanonaphtho[1,8-ab]heptalen-2-yl)-3-methylaniline]: the IC50 in experiment [1] was found to be 14.1 nM; in experiment [2], 5710 nM; in experiment [3], 4.62 nM; in experiment [4] it was 248 nM.

For `C#Cc1cccc2cncc(-c3nc4c5c(nc(OC[C@@]67CCCN6CC6(CC6(F)F)C7)nc5c3F)N3C[C@H]5CC[C@H](N5)[C@H]3[C@H](C)O4)c12` (stereo partly drawn) [Compound 40, (5S,5aS,6S,9R)-12-(((7a′S)-2,2-difluorodihydro-1′H,3′H-spiro[cyclopropane-1,2′-pyrrolizin]-7a′(5′H)-yl)methoxy)-2-(5-ethynylisoquinolin-4-yl)-1-fluoro-5-methyl-5a,6,7,8,9,10-hexahydro-5H-4-oxa-3,10a,11,13,14-pentaaza-6,9-methanonaphtho[1,8-ab]heptalene], the IC50 in experiment [1] stood at 27.7 nM; in experiment [2], 15700 nM; in experiment [3], 36 nM; in experiment [4] it was 20000 nM.

As for `C=C1CN2CCC[C@@]2(COc2nc3c4c(nc(-c5cc(O)cc6cccc(CC)c56)c(F)c4n2)O[C@@H](C)[C@@H]2[C@@H]4CC[C@H](CN32)N4)C1` [Compound 80, 5-Ethyl-4-((5S,5aS,6S,9R)-1-fluoro-5-methyl-12-(((S)-2-methylenetetrahydro-1H-pyrrolizin-7a(5H)-yl)methoxy)-5a,6,7,8,9,10-hexahydro-5H-4-oxa-3,10a,11,13,14-pentaaza-6,9-methanonaphtho[1,8-ab]heptalen-2-yl)naphthalen-2-ol], the IC50 turned out to be 5.08 nM in experiment [1], 4050 nM in experiment [2], 2.76 nM in experiment [3] and 924 nM in experiment [4].

On to `Cc1c(F)c(N)cc(-c2nc3c4c(nc(OCC56CCN5C[C@H](F)C6)nc4c2F)N2C[C@H]4CC[C@H](N4)[C@H]2[C@H](C)O3)c1C(F)(F)F` (stereo partly drawn) [Compound 29, 2-fluoro-5-((5S,5aS,6S,9R)-1-fluoro-12-(((3R)-3-fluoro-1-azabicyclo[3.2.0]heptan-5-yl)methoxy)-5-methyl-5a,6,7,8,9,10-hexahydro-5H-4-oxa-3,10a,11,13,14-pentaaza-6,9-methanonaphtho[1,8-ab]heptalen-2-yl)-3-methyl-4-(trifluoromethyl)aniline], for which the IC50 in experiment [1] is 4.98 nM; in experiment [2], 8190 nM; in experiment [3] it was 7.76 nM; in experiment [4] it was 6110 nM.

For the compound `C#Cc1cccc2cc(O)cc(-c3nc4c5c(nc(OC[C@@]67CCCN6C[C@H](F)C7)nc5c3F)N3C[C@H]5CC[C@H](CN5CCCF)[C@H]3CO4)c12` [Compound 50, 5-Ethynyl-4-((5aS,6R,9R)-1-fluoro-14-(3-fluoropropyl)-12-(((2R,7aS)-2-fluorotetrahydro-1H-pyrrolizin-7a(5H)-yl)methoxy)-5a,6,7,8,9,10-hexahydro-5H-4-oxa-3,10a,11,13,14-pentaaza-6,9-ethanonaphtho[1,8-ab]heptalen-2-yl)naphthalen-2-ol], the IC50 turned out to be 13 nM in experiment [1], 4910 nM in experiment [2], 25.8 nM in experiment [3] and 455 nM in experiment [4].

`Cc1cc(N)cc(-c2nc3c4c(nc(OC[C@]56CCN5CC(F)(F)C6)nc4c2F)N2C[C@H]4CC[C@H](N4)[C@H]2[C@H](C)O3)c1C(F)(F)F` [Compound 60, 3-((5S,5aS,6S,9R)-12-(((R)-3,3-Difluoro-1-azabicyclo[3.2.0]heptan-5-yl)methoxy)-1-fluoro-5-methyl-5a,6,7,8,9,10-hexahydro-5H-4-oxa-3,10a,11,13,14-pentaaza-6,9-methanonaphtho[1,8-ab]heptalen-2-yl)-5-methyl-4-(trifluoromethyl)aniline]: the IC50 in experiment [1] was determined as 3.48 nM; in experiment [2] it was 16500 nM; in experiment [3], 2.59 nM; in experiment [4], 720 nM.

Regarding `Cc1cc(N)nc(-c2nc3c4c(nc(OC[C@@]56CCCN5C[C@H](F)C6)nc4c2F)N2C[C@H]4CC[C@H](N4)[C@H]2[C@H](C)O3)c1C(F)(F)F` [Compound 43, 6-((5S,5aS,6S,9R)-1-Fluoro-12-(((2R,7aS)-2-fluorotetrahydro-1H-pyrrolizin-7a(5H)-yl)methoxy)-5-methyl-5a,6,7,8,9,10-hexahydro-5H-4-oxa-3,10a,11,13,14-pentaaza-6,9-methanonaphtho[1,8-ab]heptalen-2-yl)-4-methyl-5-(trifluoromethyl)pyridin-2-amine], the IC50 in experiment [1] is 43.4 nM; in experiment [2], no less than 20000 nM; in experiment [3], 16.8 nM; in experiment [4], 4290 nM.

Regarding `C[C@@H]1Oc2nc(-c3cncc4ccccc34)c(F)c3nc(OC[C@@]45CCCN4CC4(CC4(F)F)C5)nc(c23)N2C[C@H]3CC[C@H](N3)[C@@H]12` (stereo partly drawn) [Compound 30, (5S,5aS,6S,9R)-12-(((7a′S)-2,2-difluorodihydro-1′H,3′H-spiro[cyclopropane-1,2′-pyrrolizin]-7a′(5′H)-yl)methoxy)-1-fluoro-2-(isoquinolin-4-yl)-5-methyl-5a,6,7,8,9,10-hexahydro-5H-4-oxa-3,10a,11,13,14-pentaaza-6,9-methanonaphtho[1,8-ab]heptalene], the IC50 in experiment [1] was 166 nM; in experiment [2], 3810 nM; in experiment [3], 154 nM; in experiment [4], 2890 nM.

`Cc1c(F)c(N)cc(-c2nc3c4c(nc(OC[C@]56CCN5CC(F)(F)C6)nc4c2F)N2C[C@H]4CC[C@H](N4)[C@H]2[C@H](C)O3)c1C(F)(F)F` [Compound 24, 5-((5S,5aS,6S,9R)-12-(((R)-3,3-difluoro-1-azabicyclo[3.2.0]heptan-5-yl)methoxy)-1-fluoro-5-methyl-5a,6,7,8,9,10-hexahydro-5H-4-oxa-3,10a,11,13,14-pentaaza-6,9-methanonaphtho[1,8-ab]heptalen-2-yl)-2-fluoro-3-methyl-4-(trifluoromethyl)aniline]: the IC50 in experiment [1] was 4.29 nM; in experiment [2], 7870 nM; in experiment [3] it was 1.89 nM; in experiment [4], 6710 nM.

In the case of `C[C@@H]1Oc2nc(-c3cc(N)c(F)cc3C(F)(F)F)c(F)c3nc(OC[C@@]45CCCN4C[C@H](F)C5)nc(c23)N2C[C@H]3CC[C@H](N3)[C@@H]12` [Compound 14, 2-fluoro-5-((5S,5aS,6S,9R)-1-fluoro-12-(((2R,7aS)-2-fluorotetrahydro-1H-pyrrolizin-7a(5H)-yl)methoxy)-5-methyl-5a,6,7,8,9,10-hexahydro-5H-4-oxa-3,10a,11,13,14-pentaaza-6,9-methanonaphtho[1,8-ab]heptalen-2-yl)-4-(trifluoromethyl)aniline], the IC50 was 5.62 nM in experiment [1], 6210 nM in experiment [2], 11.3 nM in experiment [3] and 2510 nM in experiment [4].

`C=C1CN2CCC[C@@]2(COc2nc3c4c(nc(-c5nc(N)cc(C)c5C(F)(F)F)c(F)c4n2)O[C@@H](C)[C@@H]2[C@@H]4CC[C@H](CN32)N4)C1` [Compound 48, 6-((5S,5aS,6S,9R)-1-fluoro-5-methyl-12-(((S)-2-methylenetetrahydro-1H-pyrrolizin-7a(5H)-yl)methoxy)-5a,6,7,8,9,10-hexahydro-5H-4-oxa-3,10a,11,13,14-pentaaza-6,9-methanonaphtho[1,8-ab]heptalen-2-yl)-4-methyl-5-(trifluoromethyl)pyridin-2-amine]: the IC50 is 8.24 nM in experiment [1], no less than 20000 nM in experiment [2], 5.52 nM in experiment [3] and 5760 nM in experiment [4].

Take `C#Cc1cccc2cc(O)cc(-c3nc4c5c(nc(OC[C@@]67CCCN6C[C@H](F)C7)nc5c3F)N3C[C@H]5CC[C@H](CN5CC5COC5)[C@H]3CO4)c12` [Compound 51, 5-ethynyl-4-((5aS,6R,9R)-1-fluoro-12-(((2R,7aS)-2-fluorotetrahydro-1H-pyrrolizin-7a(5H)-yl)methoxy)-14-(oxetan-3-ylmethyl)-5a,6,7,8,9,10-hexahydro-5H-4-oxa-3,10a,11,13,14-pentaaza-6,9-ethanonaphtho[1,8-ab]heptalen-2-yl)naphthalen-2-ol]: the IC50 was 51.2 nM in experiment [1], 19500 nM in experiment [2], 73 nM in experiment [3] and 1820 nM in experiment [4].

Source of the values: US12338256B2, “Aza-tetracyclic oxazepine compounds and uses thereof” (Genentech, Inc., priority 2022, dated 2025).
